This test addresses T1, human OX2R (Homo sapiens, UniProt O43614).
T1 construct: expressed in transfected cells; host or cells: CHO (Chinese hamster ovary) cells grown under G418 selection
T1 sequence (O43614 1-444): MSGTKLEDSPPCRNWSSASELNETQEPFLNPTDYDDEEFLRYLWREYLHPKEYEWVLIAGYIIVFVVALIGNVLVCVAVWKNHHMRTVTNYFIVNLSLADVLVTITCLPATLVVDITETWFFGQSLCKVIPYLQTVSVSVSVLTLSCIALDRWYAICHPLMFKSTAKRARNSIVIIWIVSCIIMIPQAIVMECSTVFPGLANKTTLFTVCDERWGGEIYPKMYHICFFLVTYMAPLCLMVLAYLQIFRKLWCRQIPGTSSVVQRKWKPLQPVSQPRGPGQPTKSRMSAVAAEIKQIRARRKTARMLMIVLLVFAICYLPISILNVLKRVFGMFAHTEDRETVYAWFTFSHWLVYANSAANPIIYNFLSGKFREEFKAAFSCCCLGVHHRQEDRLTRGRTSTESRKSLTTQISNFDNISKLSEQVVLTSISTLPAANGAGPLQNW
In words: IPOne (IP-1 accumulation) assay in CHO cells expressing human OX2R. It counts as cell-based. To be noted: for EC50: CHO cells expressing human OX2R, IP-One assay, 2 h incubation, four parameter logistic fit, read-out: OX2R Potency, EC50; for % of maximum agonist effect (relative to Orexin A): percent effect vs mean max effect of a reference compound at 1 uM (100% activity vs Orexin A), human OX2R. In outline: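 Agonist EC50 values come from the inflection point of four-parameter logistic curves. Read-out is IP-1 accumulation detected with lysis buffer plus D2 and AB-cryptate reagents (HTRF), in CHO cells engineered to express human OX2R.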

For `CCN(C(=O)N[C@@H](CCS(C)(=O)=O)C(F)(F)F)[C@@H](c1cc(-c2cn3ccnc3c(OC)n2)c(OC)cn1)C(F)(F)F` [Example 2-36, 1-ethyl-1-((S)-2,2,2-trifluoro-1-(5-methoxy-4-(8-methoxyimidazo[1,2-a]pyrazin-6-yl)pyridin-2-yl)ethyl)-3-((S)-1,1,1-trifluoro-4-(methylsulfonyl)butan-2-yl)urea], the EC50 – broadly, the midpoint of the concentration-response curve – is 0.7 nM and the “% of maximum agonist effect (relative to Orexin A)” value is given as 100.5%.
The like results for `CCCC(C#N)NC(=O)N(CC)[C@H](C)c1cccc(-c2cn3ccnc3c(OC)n2)c1` (stereo partly drawn) [Example 2-37, 3-(1-cyanobutyl)-1-ethyl-1-((R)-1-(3-(8-methoxyimidazo[1,2-a]pyrazin-6-yl)phenyl)ethyl)urea] were, in that order, 20 nM and 100.8%.
Take `CCN(C(=O)NC1CC(C(F)(F)F)C1)[C@@H](c1cc(-c2cn3ccnc3c(OC)n2)c(OC)cn1)C(F)(F)F` (stereo partly drawn) [Example 2-38, (S)-1-ethyl-1-(2,2,2-trifluoro-1-(5-methoxy-4-(8-methoxyimidazo[1,2-a]pyrazin-6-yl)pyridin-2-yl)ethyl)-3-(3-(trifluoromethyl)cyclobutyl)urea]: the concentration for a half-maximal effect (EC50) came out at 4.2 nM and the “% of maximum agonist effect (relative to Orexin A)” value is on record as 99.7%.
In the case of `CCN(C(=O)N[C@H]1C[C@@]1(C)C(F)(F)F)[C@@H](c1cc(-c2cn3ccnc3c(OC)n2)c(OC)cn1)C(F)(F)F` [Example 2-39, 1-ethyl-3-((1S,2R)-2-methyl-2-(trifluoromethyl)cyclopropyl)-1-((S)-2,2,2-trifluoro-1-(5-methoxy-4-(8-methoxyimidazo[1,2-a]pyrazin-6-yl)pyridin-2-yl)ethyl)urea], the concentration for a half-maximal effect (EC50) is 5.8 nM and the “% of maximum agonist effect (relative to Orexin A)” value came to 99.3%.
Take `CCN(C(=O)NC(C)C(C)(F)F)[C@@H](c1cc(-c2cn3ccnc3c(OC)n2)c(OC)cn1)C(F)(F)F` (stereo partly drawn) [Example 2-40, 3-(3,3-difluorobutan-2-yl)-1-ethyl-1-((S)-2,2,2-trifluoro-1-(5-methoxy-4-(8-methoxyimidazo[1,2-a]pyrazin-6-yl)pyridin-2-yl)ethyl)urea]: the EC50 worked out at 15.8 nM and the “% of maximum agonist effect (relative to Orexin A)” value is recorded as 99.3%.
In the case of `CCN(C(=O)NC(C)C(F)F)[C@@H](c1cc(-c2cn3ccnc3c(OC)n2)c(OC)cn1)C(F)(F)F` (stereo partly drawn) [Example 2-41, 3-(1,1-difluoropropan-2-yl)-1-ethyl-1-((S)-2,2,2-trifluoro-1-(5-methoxy-4-(8-methoxyimidazo[1,2-a]pyrazin-6-yl)pyridin-2-yl)ethyl)urea], the EC50 was determined as 16.3 nM and the “% of maximum agonist effect (relative to Orexin A)” value is listed as 101.2%.
The like results for `CCN(C(=O)NC1CC1(F)F)[C@@H](c1cc(-c2cn3ccnc3c(OC)n2)c(OC)cn1)C(F)(F)F` (stereo partly drawn) [Example 2-42, 3-(2,2-difluorocyclopropyl)-1-ethyl-1-((S)-2,2,2-trifluoro-1-(5-methoxy-4-(8-methoxyimidazo[1,2-a]pyrazin-6-yl)pyridin-2-yl)ethyl)urea] were, in that order, 27.8 nM and 101.7%.
As to `CCN(C(=O)NC(CN1CCOC1=O)C(F)(F)F)[C@@H](c1cc(-c2cn3ccnc3c(OC)n2)c(OC)cn1)C(F)(F)F` (stereo partly drawn) [Example 2-43, 1-ethyl-1-((S)-2,2,2-trifluoro-1-(5-methoxy-4-(8-methoxyimidazo[1,2-a]pyrazin-6-yl)pyridin-2-yl)ethyl)-3-(1,1,1-trifluoro-3-(2-oxooxazolidin-3-yl)propan-2-yl)urea], the concentration for a half-maximal effect (EC50) amounted to 1.1 nM and the “% of maximum agonist effect (relative to Orexin A)” value was 99.8%.
Take `CCN(C(=O)N[C@@H](CC(OC)C(F)(F)F)C(F)(F)F)[C@@H](c1cc(-c2cn3cc(C)nc3c(OC)n2)c(OC)cn1)C(F)(F)F` (stereo partly drawn) [Example 2-44, 1-ethyl-3-((2S)-1,1,1,5,5,5-hexafluoro-4-methoxypentan-2-yl)-1-((S)-2,2,2-trifluoro-1-(5-methoxy-4-(8-methoxy-2-methylimidazo[1,2-a]pyrazin-6-yl)pyridin-2-yl)ethyl)urea]: the EC50 came to 4.8 nM and the “% of maximum agonist effect (relative to Orexin A)” value was 100.6%.
Regarding `CCN(C(=O)NC(CCC(F)(F)F)C1CCO1)[C@@H](c1cc(-c2cn3ccnc3c(OC)n2)c(OC)cn1)C(F)(F)F` (stereo partly drawn) [Example 2-45, 1-ethyl-1-((S)-2,2,2-trifluoro-1-(5-methoxy-4-(8-methoxyimidazo[1,2-a]pyrazin-6-yl)pyridin-2-yl)ethyl)-3-(4,4,4-trifluoro-1-(oxetan-2-yl)butyl)urea], the EC50 came to 1.9 nM and the “% of maximum agonist effect (relative to Orexin A)” value came to 99.8%.
On the same counts, the results for `CCN(C(=O)NC(CC1CCCO1)C(F)(F)F)[C@@H](c1cc(-c2cn3cc(C)nc3c(OC)n2)c(OC)cn1)C(F)(F)F` (stereo partly drawn) [Example 2-46, 1-ethyl-1-((S)-2,2,2-trifluoro-1-(5-methoxy-4-(8-methoxy-2-methylimidazo[1,2-a]pyrazin-6-yl)pyridin-2-yl)ethyl)-3-(1,1,1-trifluoro-3-(tetrahydrofuran-2-yl)propan-2-yl)urea] are 11.7 nM and 100.9%.
As for `CCN(C(=O)NC(C1CCCOC1)C(F)(F)F)[C@@H](c1cc(-c2cn3cc(C)nc3c(OC)n2)c(OC)cn1)C(F)(F)F` (stereo partly drawn) [Example 2-47, 1-ethyl-1-((S)-2,2,2-trifluoro-1-(5-methoxy-4-(8-methoxy-2-methylimidazo[1,2-a]pyrazin-6-yl)pyridin-2-yl)ethyl)-3-(2,2,2-trifluoro-1-(tetrahydro-2H-pyran-3-yl)ethyl)urea], the EC50 amounted to 16.7 nM and the “% of maximum agonist effect (relative to Orexin A)” value came to 100.7%.
As to `CCN(C(=O)NC(C1CCOCC1)C(F)(F)F)[C@@H](c1cc(-c2cn3cc(C)nc3c(OC)n2)c(OC)cn1)C(F)(F)F` (stereo partly drawn) [Example 2-48, 1-ethyl-1-((S)-2,2,2-trifluoro-1-(5-methoxy-4-(8-methoxy-2-methylimidazo[1,2-a]pyrazin-6-yl)pyridin-2-yl)ethyl)-3-(2,2,2-trifluoro-1-(tetrahydro-2H-pyran-4-yl)ethyl)urea], the 50% effective concentration (EC50) is 17.6 nM and the “% of maximum agonist effect (relative to Orexin A)” value worked out at 101.0%.
Regarding `CCN(C(=O)NC(CCC(F)(F)F)COC)[C@@H](c1cc(-c2cn3cc(C)nc3c(OC)n2)c(OC)cn1)C(F)(F)F` (stereo partly drawn) [Example 2-49, 1-ethyl-1-((S)-2,2,2-trifluoro-1-(5-methoxy-4-(8-methoxy-2-methylimidazo[1,2-a]pyrazin-6-yl)pyridin-2-yl)ethyl)-3-(5,5,5-trifluoro-1-methoxypentan-2-yl)urea], the EC50 worked out at 99.4 nM and the “% of maximum agonist effect (relative to Orexin A)” value is on record as 100.1%.
For `CCN(C(=O)N[C@@H](CCC(F)(F)F)C(F)(F)F)C(c1cnc(OC)c(-c2cn3ccnc3c(OC)n2)c1)C(F)(F)F` (stereo partly drawn) [Example 2-50, 1-ethyl-3-((S)-1,1,1,5,5,5-hexafluoropentan-2-yl)-1-(2,2,2-trifluoro-1-(6-methoxy-5-(8-methoxyimidazo[1,2-a]pyrazin-6-yl)pyridin-3-yl)ethyl)urea], the concentration for a half-maximal effect (EC50) was 1.4 nM and the “% of maximum agonist effect (relative to Orexin A)” value is listed as 100.5%.
Turning to `CCN(C(=O)N[C@@H](CCC(F)(F)F)C(F)(F)F)[C@H](C)c1cc(-c2cc3ccnn3c(OC)n2)c(OC)cn1` [Example 2-51, 1-ethyl-3-((S)-1,1,1,5,5,5-hexafluoropentan-2-yl)-1-((R)-1-(5-methoxy-4-(7-methoxypyrazolo[1,5-c]pyrimidin-5-yl)pyridin-2-yl)ethyl)urea], the concentration giving a half-maximal response (EC50) was 1 nM and the “% of maximum agonist effect (relative to Orexin A)” value is recorded as 98.7%.

These data come from patent US12692262B2, “Substituted ureas as orexin receptor agonists” (Merck Sharp & Dohme LLC, priority 2020, dated 2026).
